In assay [1] the test system is RSV (Respiratory syncitial virus). Put plainly: Virucidal suspension test (EN14476), virus kill of RSV. It is filed as cell-based. As to conditions: contact time five minutes, clean conditions (bovine albumin). Here is the method:
(§1) The virucidal activity of various test solutions were measured using the following protocol.
(§2) A standard EST protocol (EN14476) was followed for the evaluation of activity of antiviral actives in suspension test. Antiviral activity of actives was tested in clean conditions.
(§3) Clean conditions: To create clean conditions, 0.3 g of bovine albumin fraction V was dissolved in 100 ml of water and sterilised by passing the solution through a 0.2 μm filter).
(§4) Preparation of test mixture: To prepare the test mixture, 1 ml of interfering substance (Bovine Albumin) was pipetted into a suitable container, followed by addition of 1 ml of test virus suspension. To this, 8 ml of product test solution was added. At the end of chosen contact time period, 100 μl of the test mixture was added to resin column. Centrifugation of microspin column (735×g, 2 min). The elutant was diluted up to 10^−6 in ice cold virus growth medium. The infectivity of each dilution was measured by TCID50 using the Spaerman-Karber formula. Titration of Virus: Monolayers of cells were grown in 96-well tissue-culture plates (Costar) at 37° C. in an atmosphere of 95% air and 5% carbon dioxide (CO2). Tenfold dilutions of virus suspension were prepared in virus growth medium. One hundred microlitres of each dilution was added to five replicate wells in 96-well tissue-culture plates. Cell controls were included on each plate. Plates were incubated at 37° C. in an atmosphere of 95% air/5% CO2. Cultures were observed daily for viral cytopathic effect for a period of seven days after which they were discarded. The virus titre was calculated by TCID50 (Tissue culture infective dose) using the Spaerman-Karber formula.
(§5) Negative logarithm of the 50% end point=Negative logarithm of the highest virus concentration used−[(Sum of % affected at each dilution/100−0.5)×([…])]
Various compositions as shown in Table-2 were prepared and their virucidal activity was measured using the procedure given earlier. […]
Various compositions as shown in Table-5 were prepared and their virucidal activity was measured using the procedure given earlier. […]

The next assay concerns FCV (Feline Calcivirus). Nature of the assay: Virucidal suspension test (EN14476), viral kill of FCV. It is filed as cell-based, Feline Calicivirus. The conditions noted are these: contact time five minutes, clean conditions (bovine albumin). Here is the method: as §1, §2, §3, §4, §5
Various compositions as shown in Table-1 were prepared and their virucidal activity was measured using the procedure given earlier. […]
Various compositions as shown in Table-4 were prepared and their virucidal activity was measured using the procedure given earlier. […]

A further assay relates to MS2 Phage. Put plainly: Virucidal suspension test (EN14476), virus kill of MS-2 bacteriophage. It is filed as cell-based. As to conditions: contact time five minutes, clean conditions (bovine albumin), MS2 Phage control 6.36, Table 3. Here is the method: as §1, §2, §3
Preparation of test mixture: To prepare the test mixture, 1 ml of interfering substance (Bovine Albumin) was pipetted into a suitable container, followed by addition of 1 ml of test virus suspension. To this, 8 ml of product test solution was added. At the end of chosen contact time period, 100 μl of the test mixture was added to resin column. Centrifugation of microspin column (735×g, 2 min). The elutant was diluted up to 10^−6 in ice cold virus growth medium. The infectivity of each dilution was measured by TCID50 using the Spaerman-Karber formula. Titration of Virus: Monolayers of cells were grown in 96-well tissue-culture plates (Costar) at 37° C. in an atmosphere of 95% air and 5% carbon dioxide (CO2). […] The virus titre was calculated by TCID50 (Tissue culture infective dose) using the Spaerman-Karber formula. […]
Various compositions as shown in Table-3 were prepared and their virucidal activity was measured using the procedure given earlier. […]

In the case of `COc1cc(/C=C/C(=O)CC(=O)/C=C/c2ccc(O)c(OC)c2)ccc1O` [Example 3, Curcumin], the “amount of virus remaining, Log TCID50/0.1 ml” value in assay [1] (RSV Control 5.00, Table 2) was 4.65 Log TCID50/0.1 ml; in the assay with FCV (Feline Calcivirus) (FCV Control 4.50, Table 1), 3.40 Log TCID50/0.1 ml.
For the molecule benzalkonium chloride [Example 2], the “amount of virus remaining, Log TCID50/0.1 ml” value was determined as 2.50 Log TCID50/0.1 ml in assay [1] (RSV Control 5.00, Table 2) and 3.25 Log TCID50/0.1 ml with FCV (Feline Calcivirus) (FCV Control 4.50, Table 1).
On to benzalkonium chloride [Example 10], for which the “amount of virus remaining, Log TCID50/0.1 ml” value in the assay with MS2 Phage was 1.94 Log TCID50/0.1 ml; in assay [1] (RSV Control 4.70, Table 5), 3.90 Log TCID50/0.1 ml; in the assay on FCV (Feline Calcivirus) (FCV Control 5.50, Table 4) it was 3.10 Log TCID50/0.1 ml.

These data come from patent publication US20130316027A1, “ANTIMICROBIAL COMPOSITION” (priority 2011, published 2013).
